We go through 1 substance from patent publication US20110160121A1, “UNACYLATED GHRELIN AND ANALOGS AS THERAPEUTIC AGENTS FOR VASCULAR REMODELING IN DIABETIC PATIENTS AND TREATMENT OF CARDIOVASCULAR DISEASE” (ALIZE PHARMA SAS, priority 2008, published 2011).

Where no end group is shown, it is not given here.

For assay [1], the system named is p53, p21, pRb. Description: Western blot of p53, p21 and phospho-Rb in cultured CAC. Type of assay: cell-based, human. To be noted: induced by AGE in cultured CAC; FIG. 2B. The source says:
To this end, the effect of AGE treatment, alone or in combination with UAG, was first evaluated on SA-β-gal activity. […] In addition, AGE-induced p53 accumulation and senescent like-growth arrest were prevented by silencing p53 (FIG. 2C).
(§1) Western Blot Analysis—CAC from healthy donors cultured in the presence of UAG, in combination or not with AGE, and CAC recovered from diabetic patients treated with saline or UAG were lysed. Protein concentration was detected as previously described (Ref. 24). 50 μg of proteins were separated on SDS-polyacrylamide gels and transferred to nitrocellulose membranes. Reaction with anti-p53, anti p21 and anti-phospho-Rb antibodies and detection with an enhanced chemiluminescence detection system (Amersham Biosciences) were performed as described previously (Ref. 20).

Assay [2] has as its system CAC membranes. Description: Saturation binding experiment on CAC membranes (Scatchard analysis). Further details: species or system human.
The subject of another assay is cardiomyocytes. To be noted: Ref. 8; cited from earlier work.
For assay [3], the system named is CAC. Description: CAC mobilization assay in healthy subjects and diabetic patients. Type of assay: in vivo, human. To be noted: diabetic patients compared to normal subjects, treated for 6 hours; FIG. 3B. The procedure: This observation led to investigate the effect of UAG treatment on BM CAC mobilization. To this end, normal subject and diabetic patients were treated with UAG or saline for 6 hours. After treatment, CAC were recovered from 4 control subjects and 4 diabetic patients, analyzed by FACS analysis and counted. […] Black lines refer to preimmune IgG used as negative control and grey lines refer to surface marker expression. Similar results were obtained when CAC from untreated diabetic patients or untreated or treated healthy subjects were analyzed (data not shown).
(§2) All the subjects underwent the following testing session: • UAG (3.0 μg/kg/h iv. as infusion for 12 h from 0 to 12 hours); • isotonic saline (infusion from 0 to 12 hours).
Mobilization assay—CAC recovered from healthy subjects and diabetic patients, treated with UAG or saline for 6 h and 12 h, were evaluated. Total number of MNC was counted by 3 independent investigators. The percentage of CAC was calculated by comparing CAC obtained from diabetic patients and healthy donors, treated for 6 h and 12 h with UAG, AG or saline, to CAC recovered at time 0.

Assay [4] deals with CAC. Description: Expansion and arterial commitment of CAC recovered from UAG-challenged mice, cultured with IL-3. The assay is classed as in vivo, mouse. The procedure: After treatment, cells were recovered, assayed by FACS analysis, counted and cultured. […] Black lines refer to preimmune IgG used as negative control and grey lines refer to surface marker expression. Similar results were obtained when CAC from untreated diabetic mice as well as untreated or treated wild-type mice were analyzed (data not shown).
(§3) RNA isolation and quantitative real-time PCR—CAC from diabetic patients, healthy subjects and mice treated with UAG or saline were cultured in EGM-2 medium. Human arterial and venous cells were used as a positive controls. mRNA quantification was performed by Q-RT-PCR, as previously described (Ref. 24). The relative expression of Ephrin B2, Notch1, Notch4 and EphB4 were calculated by using comparative threshold cycle methods. The human and murine primer sequences used were described (Refs. 25, 26).
Flow Cytometry—To analyze CAC cell-cycle progression, cells recovered from diabetic, healthy subjects, NOD/SCID, ob/ob and wt mice, were cultured in EBM-2 supplemented with IL-3 (10 ng/ml), FACS analysis was performed as previously described (Ref. 20). Cell surface molecules were evaluated by flow cytometry as previously described (Ref. 24). Frequency of marker-positive cells is expressed as mean±standard deviation (SD). […]

Assay [5] deals with CAC. Description: Expansion (S phase) of CAC recovered from treated patients, cultured with IL-3. Type of assay: in vivo, human. To be noted: cells recovered from treated diabetic patients; FIG. 3C. The procedure: (§4) To confirm their vascular features, the cells recovered from patients and controls were cultured with IL-3; which is able to induce expansion and arterial morphogenesis of CD45^+ cells derived from both peripheral blood and BM (Ref. 28).
Flow Cytometry—To analyze CAC cell-cycle progression, cells recovered from diabetic, healthy subjects, NOD/SCID, ob/ob and wt mice, were cultured in EBM-2 supplemented with IL-3 (10 ng/ml), FACS analysis was performed as previously described (Ref. 20). Cell surface molecules were evaluated by flow cytometry as previously described (Ref. 24). Frequency of marker-positive cells is expressed as mean±standard deviation (SD).

Assay [6] relates to CAC. Description: Arterial morphogenesis by Q-RT-PCR (Ephrin B2, Notch1, Notch4, EphB4) of CAC from treated patients. Type of assay: in vivo, human. To be noted: cells obtained from treated patients, cultured with IL-3; FIG. 3D. The procedure: as §4, §3
The subject of assay [7] is CAC membranes. Description: Competition binding with [125I-Tyr4]-UAG on CAC membranes. Further details: species or system human. Particulars: 100 nM competitor, 0.25 nM radioligand; FIG. 5A. The source says: The specific binding of [^125I-Tyr^4]-UAG (calculated as difference between binding in the absence, control, and in the presence of UAG) represented about 75% of the control value (P<0.001) and was detected either on fresh (0.25 and 0.26 fmol) or frozen-thawed (0.20 and 0.33 fmol) CAC membranes from two different cell preparations.

A further assay addresses GHSR-1a (Homo sapiens, UniProt Q92847). Particulars: Ref. 7; cited from earlier work.
In assay [8] the test system is p53, p21, pRb. Description: Western blot of p53, p21, phospho-Rb in CAC recovered from UAG-treated diabetic patients. Also on record: species or system human. To be noted: type 2 diabetic patients, UAG administered in vivo, CAC recovered after 12 hours; FIG. 2E. On the procedure: (§5) After 12 hours of treatment, CAC were recovered from UAG treated and untreated patients and cultured.
as §2, §1
(In general: A western blot detects proteins with antibodies after separation by electrophoresis.)

Assay [9] concerns CAC. Description: Senescence of CAC recovered from type 2 diabetic patients treated with UAG. Particulars: UAG administered in vivo, CAC recovered after 12 hours, FIG. 2D. Also on record: species or system human. On the procedure: as §5, §2
CAC Senescence—Senescence was evaluated by acidic β-gal activity on CAC recovered from normal subjects cultured in EGM2 medium for 4 days with UAG or AGE+UAG and saline- or UAG-treated diabetic patients (Ref. 22). Briefly, CAC were washed in phosphate-buffered saline, fixed for 3 min at room temperature in 2% paraformaldehyde, washed, and incubated for 24 h at 37° C. with fresh SA-β-gal stain solution: 1 mg/ml 5-bromo-4-chloro-3-indolyl β-D-galactopyranoside (X-gal), 5 mM/liter potassium ferrocyanide, 5 mM/liter ferricyanide, 150 mM/liter NaCl, 2 mM/liter MgCl2, 0.01% sodium deoxycholate, and 0.02% Nonidet P-40. SA-β-gal-positive cells were counted manually by 3 independent investigators.

The mark [10] stands for this setting: Scatchard analysis, CAC membranes.

Sequence of GHSR-1a (Q92847 whole entry): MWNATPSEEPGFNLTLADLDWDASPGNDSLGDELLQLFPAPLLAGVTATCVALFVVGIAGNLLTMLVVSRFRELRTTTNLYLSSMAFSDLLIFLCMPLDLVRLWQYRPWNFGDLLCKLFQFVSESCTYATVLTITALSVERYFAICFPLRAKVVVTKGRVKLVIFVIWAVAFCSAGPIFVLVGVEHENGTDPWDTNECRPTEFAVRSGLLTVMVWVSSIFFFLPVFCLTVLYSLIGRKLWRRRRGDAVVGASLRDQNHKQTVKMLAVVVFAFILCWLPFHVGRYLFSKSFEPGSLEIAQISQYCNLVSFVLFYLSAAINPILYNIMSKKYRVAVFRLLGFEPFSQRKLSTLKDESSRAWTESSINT

Broadly, the Hill coefficient is the slope factor of the fitted curve. A word on the Kd: it is the concentration at which binding is half-saturated. Low readings indicate a tighter complex, high ones a looser complex. In the case of “1-NH2Gly-Ser-Ser-Phe-Leu-Ser-Pro-Glu-His-Gln-Arg-Val-Gln-Gln-Arg-Lys-Glu-Ser-Lys-Lys-Pro-Pro-Ala-Lys-Leu-Gln-Pro-Arg-28 (H-GSSFLSPEHQRVQQRKESKKPPAKLQPR; ends and bridges not checked; listed as Homo sapiens) [UAG]”, in the assay with p53, p21, pRb [1], the “p53 accumulation, p21 expression and phosphorylation of Rb” value was “prevented p53 accumulation, p21 expression and phosphorylation of Rb induced by AGE”. Also, in the assay with CAC membranes [2] (CAC membranes, FIG. 5B), the “radioligand concentration at maximum specific binding (saturable)” value is listed as 2 nM. In the assay with CAC membranes [2] (setting [10]), this substance displayed a Bmax of 10.7 fmol/mg membrane protein and a Hill coefficient of around 1. This substance also had a dissociation constant (Kd) at CAC membranes [2] (Scatchard analysis, single class of binding sites on CAC) of 0.48 nM. Moreover, the “inhibition of experimentally-induced cell death” value in the assay on cardiomyocytes is “inhibit experimentally-induced cell death”. Also, the “number of recovered cells (CAC)” value in the assay with CAC [3] is on record as “strong increase in the number of recovered cells”. Besides, the “arterial commitment of recovered CAC” value in the assay with CAC [4] (CAC from UAG-challenged mice cultured in the presence of IL-3, FIG. 4D) is listed as “acquire arterial commitment”. Further, the “expansion of recovered CAC” value in the assay on CAC [4] (CAC from UAG-challenged mice, FIG. 4C) is on record as “could be expanded”. Besides, the “cell expansion (cells in S phase) with IL-3” value with CAC [5] is “underwent cell expansion”. Also, the “arterial specification (Ephrin B2, Notch1, Notch4; EphB4)” value in the assay with CAC [6] is on record as “able to undergo arterial specification”. In addition, in the assay with CAC membranes [7], the “inhibition of binding of [125I-Tyr4]-UAG to CAC membranes” value was “inhibited”. Moreover, the “binding to GHSR-1a” value with GHSR-1a is “fails to bind GHSR-1a”. For the same substance, the “p53 accumulation, phosphorylation of Rb and p21 expression” value with p53, p21, pRb [8] is “prevented p53 accumulation, phosphorylation of Rb and p21 expression”. The “number of senescent cells” value in the assay with CAC [9] is reported as “reduced the number of senescent cells”.
